Measurements: article PMC6963673, “Phenylboronic Acids Probing Molecular Recognition against Class A and Class C β-lactamases” (Antibiotics, 2019)
Read-outs that look alike come from different tables or passages of the source.

Key:
[1] = tested on: Pseudomonas aeruginosa overexpressing AmpC; experiment: Checkerboard microdilution assay and FICI, ceftazidime plus inhibitor; type: cell-based; details: for MIC Antibiotic: antibiotic alone; for FICI Antibiotic + inhibitor: CAZ + inhibitor, synergy FICI ≤0.5, indifference >0.5 and ≤4, antagonism >4; for nature of interaction with antibiotic: Pseudomonas aeruginosa, in combination with CAZ
Description: To investigate the ability of our phenylboronic acid derivatives 2-5 to reach the periplasmic space, where SBLs are secreted and concentrated in Gram negative bacteria, and synergically protect β-lactam antibiotics hydrolysis by BLs, drug interactions model via the fractional inhibitory concentration index (FICI) was determined against clinical strains overexpressing BLs targets of our studies (Table 2).
(§1) To assess the nature of the in vitro interactions between the compounds and antibiotics against selected clinical strains, the data obtained from the checkerboard assay were used to calculate the fractional inhibitory concentration index (FICI). Briefly, exponential cultures of the bacterial strains in Mueller Hinton broth were inoculated in the wells of microtiter plates containing different concentrations of the cited antibiotics, with and without phenylboronic acids, and incubated at 37 °C for 18 hours. The growth in each well was quantified spectrophotometrically at 595 nm by a microplate reader TECAN Infinite (Tecan Trading AG, Switzerland). The minimal inhibitory concentration (MIC) for each drug and combination of drugs was defined as the concentration of drug that reduced growth by 80% compared to that of organisms grown in the absence of drug. The fractional inhibitory concentration index (FICI) is the mathematical expression of the effect of the combination of antibacterial agents expressed in Equation (1):(1) ΣFIC=FICA+FICB=MICAB/MICA+MICBA/MICB in which MICA and MICB are the MICs of drugs A and B acting alone, and MICAB and MICBA are the MICs of drugs A and B in combination. Synergy is defined when the FICI is ≤0.5, antagonism when the FICI is > 4, and indifference when the FICI is >0.5 and ≤4.

AmpC [2] = target: T1, AmpC (Pseudomonas aeruginosa, UniProt P24735); details: read-out: AmpC Ki; lead phenylboronic acid; cited from earlier work
T1 construct: subcloned into pRham vector to have it in the full-length version; made in house; host or cells: E. coli BL21(DE3), plasmid pRham-AmpC
T1 sequence (P24735 27-397): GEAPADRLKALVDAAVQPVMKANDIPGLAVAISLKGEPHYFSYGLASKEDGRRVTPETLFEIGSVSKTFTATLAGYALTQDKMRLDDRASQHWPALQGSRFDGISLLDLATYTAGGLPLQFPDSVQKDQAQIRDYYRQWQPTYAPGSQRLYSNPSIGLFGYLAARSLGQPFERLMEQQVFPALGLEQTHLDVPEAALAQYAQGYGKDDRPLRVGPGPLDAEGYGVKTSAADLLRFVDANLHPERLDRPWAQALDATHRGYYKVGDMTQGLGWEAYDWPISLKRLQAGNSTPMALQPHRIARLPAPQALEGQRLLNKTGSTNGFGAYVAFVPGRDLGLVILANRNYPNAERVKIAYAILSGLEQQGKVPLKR

KPC-2 = target: T2, KPC-2 (Klebsiella pneumoniae, UniProt Q9F663); experiment: In vitro enzyme inhibition assay against KPC-2 (nitrocefin reporter substrate); type: biochemical; details: for drop in potency against KPC-2: meta substituent
T2 construct: made in house
T2 sequence (Q9F663 25-293 limits assumed): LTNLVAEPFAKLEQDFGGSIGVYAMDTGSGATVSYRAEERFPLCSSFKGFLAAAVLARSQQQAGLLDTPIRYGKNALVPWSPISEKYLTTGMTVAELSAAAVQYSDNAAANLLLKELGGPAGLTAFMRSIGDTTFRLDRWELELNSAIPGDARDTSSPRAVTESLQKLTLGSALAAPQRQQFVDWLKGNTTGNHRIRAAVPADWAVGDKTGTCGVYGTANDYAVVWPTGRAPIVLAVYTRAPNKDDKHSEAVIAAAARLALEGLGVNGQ
Text: (§2) Expression and purification of recombinant KPC-2 and GES-5 have been performed as already reported. For recombinant AmpC from Pseudomonas aeruginosa, the optimized full-length synthetic gene was purchased (GeneArt service under Life Technologie) and subcloned into pRham vector to have it in the full-length version. Protein was expressed according to standard protocol: P. aeruginosa AmpC-β-lactamase was obtained from a culture of E. coli BL21(DE3), carrying the plasmid vector pRham-AmpC. 1L of LB-medium with kanamycin 50 μg/mL, at 37 °C, 150 RPM for 24 hrs. Expression was induced by 0.2% w/v Rhamnose. After 5–6 hours the cell broth was centrifuged at 4500 RPM, 4 °C, for 20 min. The sample was loaded on a column packed with 25 mL of Affigel-10 (Biorad) functionalized with 3 MAPB (3-methylaminophenylboronic acid). The column was previously equilibrated with the loading buffer. The protein was eluted (flow rate, 1 mL/min) with 5 column-volumes of elution-buffer (0.5 M boric acid, 0.5 M NaCl, pH 7.0). β-lactamase activity was checked in each elution fraction using 200 μM CENTA [35]. Active fractions were pooled, concentrated by ultrafiltration using a Millipore Ultra-15 (Ultracel-10K; Millipore) and checked by SDS-Page. The protein pool final concentration (1 mg/mL) was assessed using Bradford and UV-Vis assays. Purified AmpC β-lactamase was stored at −80 °C [36].
(§3) The half-maximal inhibitory concentration (IC50) of phenylboronic acid derivatives was determined as follows. Reactions were monitored using a Jasco V-730 spectrophotometer at […] wavelength. Boronic acids were dissolved in dimethyl sulfoxide (DMSO) to a concentration of 10 mM and stored at −20°C. Each compound was tested at concentrations ranging from 1 µM to 200 µM for inhibitory activity vs full-length KPC-2 enzyme, GES-5 and AmpC in 50 mM of PB + 50 mM KCl at pH 7.4 at 25°C with 0.01% v/v Triton X-100, to avoid compound aggregation and promiscuous inhibition in presence of nitrocefin as reported substrate. For tests against KPC-2, reporter substrate nitrocefin was used at 40 μM, (Km 36 μM) while for tests against GES-5 and AmpC reporter substrate nitrocefin was used at 200 μM (Km 208 μM and Km 200 respectively). All the experiments were performed in triplicate. Experimental error never exceeded 5%. The reaction was typically initiated by adding the enzyme to the reaction buffer last. The IC50 values were determined by measuring the rate of hydrolysis of a reporter substrate in the presence of five different inhibitor concentrations at λ 482 nm. The binding affinity ki was estimated, for each compound in the library, from the determined IC50 by Cheng–Prusoff equation as per competitive inhibition (Table 1).

AmpC [3] = target: T1, AmpC; experiment: In vitro enzyme inhibition assay against AmpC (nitrocefin reporter substrate); type: biochemical; details: for drop in potency against AmpC: ortho substitution
Text: as §2, §3

[4] = tested on: clinical isolates of Klebsiella pneumoniae expressing KPC-2; experiment: Checkerboard microdilution assay and FICI, meropenem plus inhibitor; type: cell-based; details: for FICI Antibiotic + inhibitor: MEM + inhibitor, synergy FICI ≤0.5, indifference >0.5 and ≤4, antagonism >4; for nature of interaction with antibiotic: Klebsiella pneumoniae strains, in combination with MEM
Description: as §1

GES-5 = target: T3, GES-5 (Klebsiella pneumoniae, UniProt Q09HD0); experiment: In vitro enzyme inhibition assay against GES-5 (nitrocefin reporter substrate); type: biochemical
T3 construct: made in house
T3 sequence (Q09HD0 19-287): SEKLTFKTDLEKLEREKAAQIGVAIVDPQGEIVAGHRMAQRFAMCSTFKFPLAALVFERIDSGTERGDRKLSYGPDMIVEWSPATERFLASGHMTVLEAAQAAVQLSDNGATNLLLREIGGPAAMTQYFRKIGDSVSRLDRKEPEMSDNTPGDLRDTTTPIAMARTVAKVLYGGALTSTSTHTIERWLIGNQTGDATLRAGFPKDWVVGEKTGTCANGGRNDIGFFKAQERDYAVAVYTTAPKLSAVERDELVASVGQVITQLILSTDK
Text: as §2, §3

For `CC(C)(O/N=C(\C(=O)N[C@@H]1C(=O)N2C(C(=O)[O-])=C(C[n+]3ccccc3)CS[C@H]12)c1csc(N)n1)C(=O)O` [CAZ, ceftazidime, reference compound], the “MIC Antibiotic” value ([1]; P aeruginosa 12) was 32 µg/mL and the “MIC Antibiotic” value ([1]; P aeruginosa 148) was 128 µg/mL.

In the case of `OB(O)c1ccccc1` [Compound 1, phenylboronic acid], the Ki (AmpC [2]) is listed as 4.85 µM.

With `O=C(O)C=Cc1ccccc1B(O)O` [Compound 2, [2-(2-carboxyvinyl)-phenyl]boronic acid] the Ki (KPC-2) was 2.43 µM, the “FICI Antibiotic + inhibitor” value ([1]; P aeruginosa 12) was 2 and the “FICI Antibiotic + inhibitor” value ([1]; P aeruginosa 148) was 1. For the same compound, the Ki (AmpC [3]) was 41.7 µM, the “drop in potency against AmpC” value (AmpC [3]) was “up to 50 fold” and the “FICI Antibiotic + inhibitor” value ([4]; Klebsiella 53A8) was 0.0117. For the same compound, the “FICI Antibiotic + inhibitor” value ([4]; Klebsiella 53A9) was 0.0175, the “FICI Antibiotic + inhibitor” value ([4]; Klebsiella 99D8) was 0.0156 and the “nature of interaction with antibiotic” value [4] was “clear synergistic activity”. For the same compound, the Ki (GES-5) was 0.11 µM and the “higher activity against GES-5 with respect to KPC-2” value (GES-5; ratio of Ki KPC-2 to Ki GES-5) was 23 fold.

In the case of `O=C(O)C=Cc1cccc(B(O)O)c1` [Compound 3, [3-(2-carboxyvinyl)phenyl] boronic acid], the Ki (KPC-2) is reported as 31.2 µM, the “drop in potency against KPC-2” value (KPC-2) is reported as “up to 47 fold” and the “FICI Antibiotic + inhibitor” value ([1]; P aeruginosa 12) is reported as 0.5. The “FICI Antibiotic + inhibitor” value ([1]; P aeruginosa 148) was 0.375, the “nature of interaction with antibiotic” value [1] was “synergism can be defined” and the Ki (AmpC [3]) was 1.45 µM. The “FICI Antibiotic + inhibitor” value ([4]; Klebsiella 53A8) was 2, the “FICI Antibiotic + inhibitor” value ([4]; Klebsiella 53A9) was 1.5 and the “FICI Antibiotic + inhibitor” value ([4]; Klebsiella 99D8) was 2. For the same compound, the Ki (GES-5) was 24.6 µM.

For `O=C(O)CCc1ccccc1B(O)O` [Compound 4], the Ki (KPC-2) was 1.13 µM, the “FICI Antibiotic + inhibitor” value ([1]; P aeruginosa 12) was 2 and the “FICI Antibiotic + inhibitor” value ([1]; P aeruginosa 148) was 1.5. The Ki (AmpC [3]) was 76.1 µM, the “drop in potency against AmpC” value (AmpC [3]) was “up to 50 fold” and the “FICI Antibiotic + inhibitor” value ([4]; Klebsiella 53A8) was 0.1875. For the same compound, the “FICI Antibiotic + inhibitor” value ([4]; Klebsiella 53A9) was 0.2500, the “FICI Antibiotic + inhibitor” value ([4]; Klebsiella 99D8) was 0.1250 and the “nature of interaction with antibiotic” value [4] was “clear synergistic activity”. For the same compound, the Ki (GES-5) was 1.83 µM.

In the case of `O=C(O)CCc1cccc(B(O)O)c1` [Compound 5], the Ki (KPC-2) is reported as 53 µM, the “drop in potency against KPC-2” value (KPC-2) is reported as “up to 47 fold” and the “FICI Antibiotic + inhibitor” value ([1]; P aeruginosa 12) is reported as 0.3750. For the same compound, the “FICI Antibiotic + inhibitor” value ([1]; P aeruginosa 148) was 0.0936, the “nature of interaction with antibiotic” value [1] was “synergism can be defined” and the Ki (AmpC [3]) was 5.3 µM. The “FICI Antibiotic + inhibitor” value ([4]; Klebsiella 53A8) was 2, the “FICI Antibiotic + inhibitor” value ([4]; Klebsiella 53A9) was 1.5 and the “FICI Antibiotic + inhibitor” value ([4]; Klebsiella 99D8) was 2. The Ki (GES-5) was 69.4 µM.
